Source: patent US9302967B2, “Substituted cathechols as inhibitors of IL-4 and IL-5 for the treatment of bronchial asthma” (Council of Scientific & Industrial Research, priority 2011, dated 2016)
Where two headings read alike, the source gives them in different places.

Key:
[1] = design: species or system mice; conditions: mouse, in vivo
Experimental: 14 d acute oral toxicity of compound 1 of formula I was performed. Three doses were selected: 47, 23, 12 and 0 mg/kg bw (Vehicle control) of compound 1 of formula I was administered by single oral gavage using blunt ended steel canula.
Clinical biochemistry was performed using detection kit purchased from SPINREACT, SA, Spain. The blood left after the hematological studies were allowed to clot for 2 h and serum separated by centrifugation at 3000 rpm for 5 min and subsequently used for clinical biochemistry. Details of the clinical biochemistry (Table 4) and relative organ weight (Table 5) are given below.

[2] = 14 d acute oral toxicity: immunotoxicity (EPA guideline 1998); assay type: in vivo, mice; conditions: for Bone marrow cell viability % / Lymph node lymphocyte viability % (pooled) / Splenocyte viability %: 14 d acute
Experimental: 14 d acute oral toxicity of compound 1 of formula I was performed. […]
Immunotoxicity in mice was performed in accordance to EPA guideline (1998). […] Humoral immunity was measured in terms of HA titer and plaque forming cell assay. […] Cell mediated immunity was measured in terms of % increase in paw volume in mice sensitized with SRBC.

[3] = mouse, in vivo
Experimental: (§1) Earlier, LD50 of ICB 14 C6 was derived from in vitro cytotoxicity assay by NRUmethod in 3T3 cells. […] For 90d sub-chronic toxicity study the highest dose selected was one-fourth of the limit dose. Four different doses of ICB14 C6 (47, 23, 12 and 0 [vehicle] mg/kg body weight) were prepared in ground nut oil daily for 5 days a week for 90d.
Compound 1 of formula I was administered by oral gavage in water using blunt ended steel canula.
On each working day, all mice were inspected and observations recorded. All the mice were weighed weekly.
From the day of administering the drug, 30 min cage side observation of the animals were performed every day (5 days a week) till the day of sacrifice. No signs and symptoms of restlessness, perinasal wetness and rapid rate of respiration were observed post administration. […] On the 12th week we found the mouse in a shrunken state as it was kept in the deep freezer.

[4] = mouse, in vivo; remark: listed apart in the source
Experimental: as §1
(§2) Blood samples were taken from the retro-orbital sinus on day 91 for hematological and clinical chemistry analyses. Clinical analysis included serum creatinine, serum gammaGT, serum uric acid, serum glucose, serum protein, serum bilirubin, serum GOT/AST and serum GPT/ALT. Hematology including white blood cell count was analyzed with the help of Automatic Hematology Analyzer (Medonic).
Before sacrifice, blood was drawn from the retro-orbital sinus of mice with the help of heparinised capillary tubes and hematological parameters were assessed with the help of Automatic Hematology Analyzer (Medonic CA535).

[5] = mouse, in vivo; remark: listed apart in the source
Experimental: as §1, §2
The blood left after the hematological studies were allowed to clot for 2 h and serum separated by centrifugation at 3000 rpm for 5 min and subsequently used for clinical biochemistry using kits from Spinreact S.A. (Girona, Spain). Procedural details given in the technical bulletin were followed for the measurement of different serum parameters.

NF-κB pathway = conditions: lipopolysaccharide (LPS)-induced macrophages; cited from earlier work

With `C=CCc1ccc(O)c(O)c1` [Compound 1, 4-allyl-benzene-1,2-diol] the “serum bilirubin vs normal range” value [1] was “marginal rise in the serum bilirubin”, the Acid phosphatase ([1]; 12 mg/kg) was 2.98 ± 1.2 and the Bilirubin ([1]; 12 mg/kg) was 0.28 ± 0.30 mg/dL. For the same molecule, the Glucose ([1]; 12 mg/kg) was 49 ± 0.193 mg/dL, the SGOT ([1]; 12 mg/kg) was 4.32 ± 1.87 U/L and the SGPT ([1]; 12 mg/kg) was 8.42 ± 5.8 U/L. The Uric acid ([1]; 12 mg/kg) was 5.89 ± 1.6 mg/dL, the gammaGT ([1]; 12 mg/kg) was 1.78 ± 0.68 U/L and the Acid phosphatase ([1]; 23 mg/kg) was 2.75 ± 0.74. It also gave a Bilirubin ([1]; 23 mg/kg) of 0.19 ± 0.22 mg/dL, a Glucose ([1]; 23 mg/kg) of 57 ± 0.12 mg/dL and an SGOT ([1]; 23 mg/kg) of 8.64 ± 3.74 U/L. The SGPT ([1]; 23 mg/kg) was 12.15 ± 5.50 U/L, the Uric acid ([1]; 23 mg/kg) was 7.51 ± 4.13 mg/dL and the gammaGT ([1]; 23 mg/kg) was 2.38 ± 1.19 U/L. The Acid phosphatase ([1]; 47 mg/kg) was 2.06 ± 1.52, the Bilirubin ([1]; 47 mg/kg) was 1.41 ± 0.3 mg/dL and the Glucose ([1]; 47 mg/kg) was 58 ± 0.07 mg/dL. The SGOT ([1]; 47 mg/kg) was 3.24 ± 2.91 U/L, the SGPT ([1]; 47 mg/kg) was 10.8 ± 23^ U/L and the Uric acid ([1]; 47 mg/kg) was 5.59 ± 2.67 mg/dL. For the same molecule, the gammaGT ([1]; 47 mg/kg) was 2.38 ± 0.97 U/L, the “Bone marrow cell viability %” value ([2]; 12 mg/kg bw) was greater than 98% and the “Lymph node lymphocyte viability % (pooled)” value ([2]; 12 mg/kg bw) was greater than 98%. The Splenocyte viability % ([2]; 12 mg/kg bw) was 97.69 ± 0.96%, the “Bone marrow cell viability %” value ([2]; 23 mg/kg bw) was greater than 98% and the “Lymph node lymphocyte viability % (pooled)” value ([2]; 23 mg/kg bw) was greater than 98%. The Splenocyte viability % ([2]; 23 mg/kg bw) was 97.64 ± 0.73%, the “Bone marrow cell viability %” value ([2]; 47 mg/kg bw) was greater than 98% and the “Lymph node lymphocyte viability % (pooled)” value ([2]; 47 mg/kg bw) was greater than 98%. The Splenocyte viability % ([2]; 47 mg/kg bw) was 98.25 ± 0.92%, the “DTH response (cell mediated immunity)” value ([2]; mouse, in vivo) was “insignificant changes in the DTH response” and the “viability of bone marrow cells, splenocyte and lymph node lymphocyte (trypan blue)” value ([2]; mouse, in vivo) was “No significant changes”. The “HA tire (reciprocal of the last dilution showing positive reaction)” value (from here on “HA tire”) ([2]; mouse, in vivo, 12 mg/kg) was 2560, the PFC ([2]; mouse, in vivo, 12 mg/kg) was 10333 ± 3008 per 10^6lymphocytes and the “PFC and HA titre against SRBC antigen” value ([2]; mouse, in vivo, 21 mg/kg) was “did not show any significant change”. For the same molecule, the “DTH response (%)” value ([2]; mouse, in vivo, 23 mg/kg) was 19.24 ± 10.5%, the “HA tire” value ([2]; mouse, in vivo, 23 mg/kg) was 2560 and the PFC ([2]; mouse, in vivo, 23 mg/kg) was 11633 ± 3636 per 10^6lymphocytes. The “DTH response (%)” value ([2]; mouse, in vivo, 47 mg/kg) was 17.75 ± 9.8%, the “HA tire” value ([2]; mouse, in vivo, 47 mg/kg) was 1280 and the PFC ([2]; mouse, in vivo, 47 mg/kg) was 2800 ± 1288 per 10^6lymphocytes. The cage side observation [3] was “All the animals appeared normal”, the “feed and water consumption” value [3] was “comparable to sham controls” and the “necropsy findings in vital organs” value [3] was “no gross or microscopic lesion”. For the same molecule, the mortality ([3]; 47 mg/kg, 90 d) was “on the 11th weekend it died”, the “Hemoglobin, RBC and WBC counts vs normal range” value [4] was “within the normal range” and the “platelet counts vs normal range” value [4] was “below the normal range”. The HGB ([4]; 12 mg/kg) was 13.76 ± 0.55 g/dL, the PLT ([4]; 12 mg/kg) was 272 ± 93 ×10^3/mm^3 and the RBC ([4]; 12 mg/kg) was 10.07 ± 0.67 ×10^6/mm^3. The WBC ([4]; 12 mg/kg) was 8.66 ± 1.27 ×10^3/mm^3, the HGB ([4]; 23 mg/kg) was 13.85 ± 0.35 g/dL and the PLT ([4]; 23 mg/kg) was 306 ± 106 ×10^3/mm^3. For the same molecule, the RBC ([4]; 23 mg/kg) was 9.82 ± 0.014 ×10^6/mm^3, the WBC ([4]; 23 mg/kg) was 10.85 ± 2.11 ×10^3/mm^3 and the HGB ([4]; 47 mg/kg) was 12.13 ± 0.57 g/dL. The PLT ([4]; 47 mg/kg) was 319 ± 120 ×10^3/mm^3, the RBC ([4]; 47 mg/kg) was 8.51 ± 0.323 ×10^6/mm^3 and the WBC ([4]; 47 mg/kg) was 10.16 ± 1.03 ×10^3/mm^3. For the same molecule, the “Activities of AST, ALT and gammaGT enzymes vs normal range” value [5] was “within the normal range”, the Bilirubin ([5]; 12 mg/kg) was 0.91 ± 0.47 mg/dL and the Creatinine ([5]; 12 mg/kg) was 1.03 ± 0.48 mg/dL. For the same molecule, the GOT/AST ([5]; 12 mg/kg) was 12.25 ± 2.18 U/L, the GPT/ALT ([5]; 12 mg/kg) was 8.56 ± 3.79 U/L and the Glucose ([5]; 12 mg/kg) was 79.89 ± 22.82 mg/dL. For the same molecule, the LDH ([5]; 12 mg/kg) was 175.3 ± 18 U/L, the Total protein ([5]; 12 mg/kg) was 8.63 ± 1.81 g/dL and the Uric acid ([5]; 12 mg/kg) was 6.05 ± 3.9 mg/dL. For the same molecule, the gammaGT ([5]; 12 mg/kg) was 12.73 ± 6.74 U/L, the Bilirubin ([5]; 23 mg/kg) was 0.37 ± 012 mg/dL and the Creatinine ([5]; 23 mg/kg) was 1.10 ± 0.65 mg/dL. The GOT/AST ([5]; 23 mg/kg) was 13.56 ± 6.88 U/L, the GPT/ALT ([5]; 23 mg/kg) was 12.84 ± 7.9 U/L and the Glucose ([5]; 23 mg/kg) was 61.66 ± 13.08 mg/dL. It also gave an LDH ([5]; 23 mg/kg) of 198.6 ± 27 U/L, a Total protein ([5]; 23 mg/kg) of 6.52 ± 2.61 g/dL and a Uric acid ([5]; 23 mg/kg) of 7.15 ± 0.62 mg/dL. For the same molecule, the gammaGT ([5]; 23 mg/kg) was 15.29 ± 5.38 U/L, the Bilirubin ([5]; 47 mg/kg) was 0.54 ± 0.39 mg/dL and the Creatinine ([5]; 47 mg/kg) was 1.36 ± 0.56 mg/dL. The GOT/AST ([5]; 47 mg/kg) was 5.30 ± 1.55 U/L, the GPT/ALT ([5]; 47 mg/kg) was 5.71 ± 9.89 U/L and the Glucose ([5]; 47 mg/kg) was 86.42 ± 6.39 mg/dL. The LDH ([5]; 47 mg/kg) was 210.5 ± 25 U/L, the Total protein ([5]; 47 mg/kg) was 7.78 ± 1.37 g/dL and the Uric acid ([5]; 47 mg/kg) was 5.59 ± 1.26 mg/dL. The gammaGT ([5]; 47 mg/kg) was 15.66 ± 2.63 U/L and the NF-κB pathway (NF-κB pathway) was “inhibited NF-κB pathway”.
